What is called pKi is −log10 of the Ki, conventionally taken in molar units. Low values mean a high Ki, high ones a low Ki.

This is an account of results in ChEMBL document CHEMBL1135957, “Novel 1',1'-chain substituted Delta(8)-tetrahydrocannabinols” (Bioorg Med Chem Lett, 2002).

Structures are written as SMILES. pKi: −log10 of the molar value.

Assay [1] concerns the target Cannabinoid receptor 1 (Rattus norvegicus, UniProt P20272). Nature of the assay: Binding affinity for Cannabinoid receptor 1 by the ability to displace radiolabeled CP-55940 from purified rat forebrain synaptosomes. Format: subcellular, Brain.
The target of assay [2] is Cannabinoid receptor 2 (Mus musculus, UniProt P47936). Nature of the assay: Binding affinity for Cannabinoid receptor 2 by the ability to displace radiolabeled CP-55940 from mouse spleen synaptosomes. Format: subcellular.
Cannabinoid receptor 2, sequence (P47936 whole entry): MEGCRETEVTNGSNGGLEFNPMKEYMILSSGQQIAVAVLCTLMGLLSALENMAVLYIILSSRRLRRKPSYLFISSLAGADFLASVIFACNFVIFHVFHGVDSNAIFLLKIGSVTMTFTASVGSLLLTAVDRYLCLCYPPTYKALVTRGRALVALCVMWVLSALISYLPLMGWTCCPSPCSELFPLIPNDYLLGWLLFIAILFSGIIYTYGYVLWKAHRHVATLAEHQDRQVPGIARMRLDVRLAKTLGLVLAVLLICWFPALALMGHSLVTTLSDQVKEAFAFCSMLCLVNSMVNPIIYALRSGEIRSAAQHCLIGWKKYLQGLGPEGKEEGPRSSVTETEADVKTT

Cannabinoid receptor 1, sequence (P20272 whole entry): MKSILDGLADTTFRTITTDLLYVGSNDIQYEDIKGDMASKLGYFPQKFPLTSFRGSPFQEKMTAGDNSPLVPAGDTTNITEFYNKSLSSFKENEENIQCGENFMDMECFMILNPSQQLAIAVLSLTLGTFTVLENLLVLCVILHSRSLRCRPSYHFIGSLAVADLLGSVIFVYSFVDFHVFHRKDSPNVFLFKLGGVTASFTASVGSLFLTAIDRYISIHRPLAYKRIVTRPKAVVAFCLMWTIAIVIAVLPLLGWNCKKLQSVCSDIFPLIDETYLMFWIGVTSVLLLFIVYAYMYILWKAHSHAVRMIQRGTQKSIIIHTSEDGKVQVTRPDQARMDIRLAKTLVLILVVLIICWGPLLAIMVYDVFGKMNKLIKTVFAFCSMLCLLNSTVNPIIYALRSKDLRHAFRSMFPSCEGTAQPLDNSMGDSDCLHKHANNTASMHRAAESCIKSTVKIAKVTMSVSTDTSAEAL

Take `CCCCCCC1(c2cc(O)c3c(c2)OC(C)(C)[C@@H]2CC=C(C)C[C@@H]32)CC1(Br)Br` (some centres not stated): the pKi in assay [1] is 9.15; in assay [2], 9.00.
For `C=C(C)C1CCC(C)=CC1c1c(O)cc(C2(CCCCCC)CC2)cc1O` (configuration not stated), in that order: 7.23 and 7.00.
With `CCCCCCC1(c2cc(O)c3c(c2)OC(C)(C)[C@@H]2CC=C(C)C[C@@H]32)CC1(Cl)Cl` (some centres not stated), the pKi was 8.90 in assay [1] and 9.54 in assay [2].
On the same counts, the results for `C=C(C)C1CCC(C)=CC1c1c(O)cc(C2(CCCCCC)CC2(Br)Br)cc1O` (configuration not stated) are 6.72 and 7.20.
For the molecule `C=C(C)C1CCC(C)=CC1c1c(O)cc(C2(CCCCCC)CC2(Cl)Cl)cc1O` (configuration not stated), the pKi in assay [1] was 6.18; in assay [2], 7.48.
On the same counts, the results for `CCCCCCC1(c2cc(O)c3c(c2)OC(C)(C)[C@@H]2CC=C(C)C[C@@H]32)CC1` are 9.36 and 9.07.
For `C=C(C)C1CCC(C)=CC1c1c(O)cc(C2(CCCCCC)SCCS2)cc1O` (configuration not stated), in that order: 6.87 and 7.30.
Take `CCCCCCC(C)(C)c1cc(O)c2c(c1)OC(C)(C)[C@@H]1CC=C(C)C[C@@H]21`: the pKi is 9.08 in assay [1] and 9.31 in assay [2].
`C=C(C)[C@@H]1CCC(C)=C[C@H]1c1c(O)cc(CCCCC)cc1O` [CANNABIDIOL] gave a pKi in assay [2] of 6.64.
